This is an account of results in US20120076859A1, “Targeted Lung Delivery of Citrulline and/or Another Nitric Oxide Precursor and a Method for Treatment of Pulmonary Deficiency of Nitric Oxide in Cystic Fibrosis and Other Pulmonary Diseases” (ACTIVAERO GMBH, priority 2010, published 2012).

One data set has as its system exhaled nitric oxide. To be noted: inhaled L-arginine; healthy and asthmatic subjects; cited from earlier work.
For data set [1], the system named is exhaled nitric oxide / pulmonary function. The settings on record: cystic fibrosis patients, cited from earlier work.
The conditions of data set [2]: single oral dose; cystic fibrosis and healthy subjects; cited from earlier work.
For data set [3] the following is noted: inhalation of arginine solution; cystic fibrosis patients; cited from earlier work.
In data set [4] the test system is isolated lungs of chronically hypoxic newborn pigs. The settings on record: perfusion of isolated lungs; cited from earlier work.
The nature of data set [5]: Storage stability of ready to use formulation in LDPE vials. The settings on record: room temperature; LDPE vials covered with aluminum overwrap. Format: physicochemical. As for the experimental part:
In alternative, the liquid form of the highly concentrated citrulline or another nitric oxide precursor may also be conveniently supplied as a ready to use formulation stored and supplied in 1 mL “Blow-fill-Seal” vial, made of plastic polyethylene material, such as low density polyethylene (LDPE). The selected material for such ready to use formulation prevents absorption of the active component onto the plastic walls of the vial, which is a common occurrence with other plastic materials. The 1 mL fill volume of the vial provides an exact amount of active component that is safe and efficacious for the patient convenience provided, of course, that the therapeutically effective amount of the active component can be supplied in 1 mL dilution. In the above described type of vials covered with an aluminum overwrap, citrulline or nitric oxide precursors for inhalation are stable for at least 9 months and 12 months, respectively, at room temperature. There is no loss of strength under these conditions. At accelerated conditions where the vials are exposed to a temperature of 40° C. and 75% relative humidity, all formulations for extended shelf-life will be shown to retain their full activity for at least 6 months and preferably or one year.

With `N=C(N)NCCC[C@H](N)C(=O)O` [L-arginine], in the data set with exhaled nitric oxide, the exhaled nitric oxide entry is “increased exhaled nitric oxide in a dose-dependent fashion” and the “time of maximum effect on exhaled nitric oxide” value is 60 min. For the same compound, in data set [1] (after single inhalation), the “plasma amino acid concentration of L-arginine” value was “did not change significantly over time”. In addition, in data set [1] (single inhalation), the FEV1 entry is recorded as “sustained improvement of FEV1” and the “exhaled nitric oxide concentrations” value is “significantly increasing exhaled nitric oxide concentrations”. Moreover, the “plasma L-arginine concentration” value in data set [2] is given as “significant increase of plasma L-arginine concentration”. In addition, the “adverse effects of inhalation therapy” value in data set [3] is “cough, airway inflammation and severe deterioration of the patients general conditions”. Further, the nitric oxide production entry in data set [4] is reported as “increase of nitric oxide production”.
For `NC(=O)NCCC[C@H](N)C(=O)O` [citrulline, L-(+)-2-amino-5-ureidovaleric acid], in data set [5], the “stability (shelf-life)” value is listed as “at least 9 months”.
